Assay results from article PMC10914731, “Homo-BacPROTAC-induced degradation of ClpC1 as a strategy against drug-resistant mycobacteria” (Nature Communications, 2024).
In brackets after ≈: the same amount, converted by molar mass. Several values for one entry are separate records, joined by “and”; a condition that tells them apart may be missing. Equal entries are not always repeated. Where two headings read alike, the source gives them in different places.

Columns and labels:
[1] = tested on: M. tuberculosis H37Rv (ATCC 27294); assay: microbe, parasite or virus in culture; type: cell-based; conditions: Mycobacterium tuberculosis
Msm 607 = assay: microbe, parasite or virus in culture; type: cell-based
Mtb (moxR) FNDR-M1 = assay: microbe, parasite or virus in culture; type: cell-based
[2] = tested on: Mtb (katG del) ATCC 35822; assay: microbe, parasite or virus in culture; type: cell-based; conditions: Mycobacterium tuberculosis
Mtb # 11291 = assay: microbe, parasite or virus in culture; type: cell-based; conditions: for MIC: read-out: MIC Mtb # 11291
Mtb # 8673 = assay: microbe, parasite or virus in culture; type: cell-based
Mtb ATCC 35825 = assay: microbe, parasite or virus in culture; type: cell-based
Mycobacterium avium = assay: microbe, parasite or virus in culture; type: cell-based
Mycobacterium abscessus = assay: microbe, parasite or virus in culture; type: cell-based
Mycobacterium fortuitum = assay: microbe, parasite or virus in culture; type: cell-based
[3] = tested on: Mycobacterium intracellulare; assay: microbe, parasite or virus in culture; type: cell-based; conditions: Mycobacterium intracellulare; mean ± SD; read-out: MIC Mycobacterium intracellulare
[4] = tested on: non-replicating cells of Mtb H37Rv; type: cell-based, Mycobacterium tuberculosis
[5] = tested on: Mtb H37Rv in THP-1 macrophages; assay: Intracellular MIC assay in THP-1 macrophages; type: cell-based, Mycobacterium tuberculosis; conditions: H37RV, 19.44 µM
[6] = Mycobacterium tuberculosis, mean, n = 2 well replicates
[7] = Mycobacterium tuberculosis, single well replicates
[8] = Experiment 2, three replicate columns

For `CO[C@H]1/C=C/O[C@@]2(C)Oc3c(C)c(O)c4c(O)c(c(/C=N/N5CCN(C)CC5)c(O)c4c3C2=O)NC(=O)/C(C)=C\C=C\[C@H](C)[C@H](O)[C@@H](C)[C@@H](O)[C@@H](C)[C@H](OC(C)=O)[C@@H]1C` [Rifampicin, reference compound], the MIC ([1]; M. tuberculosis H37Rv 27294, single well replicates, read-out: MIC) was 0.00949 µM (≈ 7.81 ng/mL), the MIC ([1]; Mtb H37Rv, mean ± SD, n = 3 well replicates, read-out: MIC) was 0.01 µM (≈ 8.23 ng/mL) and the MIC ([1]; Set 1, read-out: MIC (Mtb H37Rv) Set 1) was 0.00948 µM and 0.0078 µg/mL. The MIC ([1]; Set 2, read-out: MIC (Mtb H37Rv) Set 2) was 0.00948 µM and 0.0078 µg/mL, the MIC ([1]; Set 3, done at a different day than Set 1 and Set 2, read-out: MIC (Mtb H37Rv) Set 3) was 0.00948 µM and 0.0078 µg/mL and the MIC ([1]; individual example (Supplementary Table 11), read-out: MIC Mtb H37Rv) was 0.01 µM and 0.01 µg/mL. For the same molecule, the MIC ([1]; mean of 3 experiments +/- SD, unit taken from the sets above in the same table, read-out: MIC data (Mtb H37Rv) (+/- SD)) was 0.009 µM and 0.0078 µg/mL, the MIC (Msm 607; Mycolicibacterium smegmatis, 607, read-out: MIC Msm #607, individual example (Supplementary Table 11)) was 9.7 µM and 8 µg/mL and the MIC (Msm 607; Mycolicibacterium smegmatis, ATCC607, Set-3, done at a different day than Set 1 and Set 2, read-out: MIC (Msm ATCC607) Set-3) was 9.72 µM and 8 µg/mL. For the same molecule, the MIC (Msm 607; Mycolicibacterium smegmatis, ATCC607, mean of 3 experiments ± SD, read-out: MIC including standard deviations (Msm ATCC607)) was 13 µM and 10.6 µg/mL, the MIC (Msm 607; Mycolicibacterium smegmatis, ATCC607, read-out: MIC (Msm ATCC607) Set-1) was 9.72 µM and 8 µg/mL and the MIC (Msm 607; Mycolicibacterium smegmatis, ATCC607, read-out: MIC (Msm ATCC607) Set-2) was 19.4 µM and 16 µg/mL. For the same molecule, the MIC (Mtb (moxR) FNDR-M1; M. tuberculosis FNDR-M1, single well replicates) was 0.019 µM and 0.00949 µM (2×), the MIC (Mtb (moxR) FNDR-M1; Mycobacterium tuberculosis, Mtb (moxR) FNDR-M1, mean ± SD, n = 3 well replicates) was 0.01 µM (≈ 8.23 ng/mL) and the MIC ([2]; ATCC35822, M. tuberculosis ATCC 35822, single well replicates) was 0.00949 µM (≈ 7.81 ng/mL). The MIC ([2]; ATCC35822, Mtb (katG del) ATCC 35822, mean ± SD, n = 3 well replicates) was 0.01 µM (≈ 8.23 ng/mL), the MIC (Mtb # 11291; [6]) was 0.005 µM and 0.004 µg/mL and the MIC (Mtb # 11291; [7]) was 0.005 µM and 0.004 µg/mL. For the same molecule, the “MIC Mtb # 11291” value (Mtb # 11291; single well replicates) was 0.004 µg/mL (≈ 0.00486 µM), the MIC (Mtb # 11291; single well replicates) was 0.005 µM (≈ 4.11 ng/mL) and the MIC (Mtb # 8673; [6]) was 38.9 µM and 32 µg/mL. The MIC (Mtb # 8673; [7]) was 38.9 µM and 32 µg/mL, the MIC (Mtb # 8673; single well replicates) was 38.88 µM (≈ 32000 ng/mL) and the “MIC Mtb # 8673” value (Mtb # 8673; single well replicates) was 32 µg/mL (≈ 38.9 µM). The MIC (Mtb ATCC 35825; Mycobacterium tuberculosis, ATCC35825, mean, n = 2 well replicates) was 0.005 µM and 0.004 µg/mL, the MIC (Mtb ATCC 35825; Mycobacterium tuberculosis, ATCC35825, single well replicates) was 0.004 µg/mL and 0.005 µM and the MIC (Mtb ATCC 35825; single well replicates) was 0.005 µM (≈ 4.11 ng/mL). The “MIC Mtb ATCC 35825” value (Mtb ATCC 35825; single well replicates) was 0.004 µg/mL (≈ 0.00486 µM), the “MIC (µg/ml) Mycobacterium avium” value (Mycobacterium avium; [8]) was 0.25 µg/mL (≈ 0.304 µM) and the MIC (Mycobacterium avium; Experiment 2, three replicate columns, read-out: MIC (µM) Mycobacterium avium) was 0.30 µM. It also gave an MIC (Mycobacterium avium; Mycobacterium avium, Experiment 2, three replicate columns, read-out: MIC (µM) Mycobacterium avium) of 0.3 µM, an MIC (Mycobacterium avium; Mycobacterium avium, Experiment 2, three replicate columns, read-out: MIC (µg/ml) Mycobacterium avium) of 0.25 µg/mL and an MIC (Mycobacterium avium; Mycobacterium avium, mean ± SD, read-out: MIC Mycobacterium avium) of 0.3 µM. The “MIC (µg/ml) Mycobacterium abscessus” value (Mycobacterium abscessus; [8]) was 8 µg/mL (≈ 9.72 µM), the MIC (Mycobacterium abscessus; Experiment 2, three replicate columns, read-out: MIC (µM) Mycobacterium abscessus) was 9.72 µM and the MIC (Mycobacterium abscessus; Mycobacteroides abscessus, Experiment 2, three replicate columns, read-out: MIC (µM) Mycobacterium abscessus) was 9.72 µM. For the same molecule, the MIC (Mycobacterium abscessus; Mycobacteroides abscessus, Experiment 2, three replicate columns, read-out: MIC (µg/ml) Mycobacterium abscessus) was 8 µg/mL, the MIC (Mycobacterium abscessus; Mycobacteroides abscessus, mean ± SD, read-out: MIC Mycobacterium abscessus) was 9.7 µM and the “MIC (µg/ml) Mycobacterium fortuitum” value (Mycobacterium fortuitum; [8]) was 1 µg/mL (≈ 1.22 µM). It also gave an MIC (Mycobacterium fortuitum; Experiment 2, three replicate columns, read-out: MIC (µM) Mycobacterium fortuitum) of 1.22 µM, an MIC (Mycobacterium fortuitum; Mycolicibacterium fortuitum, Experiment 2, three replicate columns, read-out: MIC (µM) Mycobacterium fortuitum) of 1.22 µM and an MIC (Mycobacterium fortuitum; Mycolicibacterium fortuitum, Experiment 2, three replicate columns, read-out: MIC (µg/ml) Mycobacterium fortuitum) of 1 µg/mL. The MIC (Mycobacterium fortuitum; Mycolicibacterium fortuitum, mean ± SD, read-out: MIC Mycobacterium fortuitum) was 1.2 µM, the MIC [3] was 0.2 µM (≈ 165 ng/mL) and the “inhibitory activity on non-growing Mtb H37Rv” value [4] was “retained a partial inhibitory activity”. The intracellular viable mycobacteria ([5]; 96 h) was 4.26 log10 cfu/ml and the intracellular viable mycobacteria ([5]; 168 h) was 3.56 log10 cfu/ml.
